Data set [1] in a line: Formation of foam on preparing the mixture. It counts as physicochemical. Particulars: 1% with 1% Cocamidopropyl betaine. As for the experimental part:
The two solutions were next stirred in equivalent manner, the photographs being taken before, immediately after stirring and 1 h after stirring.

Data set [2] relates to flat-leaf parsley variety NOVAS. As to the kind of experiment: Vertical anchoring of the root, assays in fields. It counts as in vivo. The note with it: seeds immersed 1 h in 2.5% solution; 12 weeks after sowing. As for the experimental part: In order to test the effect of the invention in conditions of crops in the field, the flat-leaf parsley variety NOVAS is used.
(§1) The seeds are next dried in a heating tunnel at 45° C. for 1 h.
The seeds are mechanically sown (seeder) on strips of four rows each one beside the other to limit as much as possible the variations in soil quality, insulation and temperature.
12 weeks after sowing, 25 parsley plants were harvested in order to observe root morphology.

A further data set concerns maize seeds. As to the kind of experiment: Germination of maize seeds after immersion treatment (Example 2). It counts as in vivo. The note with it: maize seeds immersed 1 h in 0.75% solution. As for the experimental part: The seeds are next dried in a heating tunnel at 45° C. for one hour. Four batch repetitions of 16 seeds are deposited on Petri dishes containing a medium composed of 2% Agar Agar and 98% water.
The Petri dishes are kept at ambient temperature and in darkness. Each day the number of seeds that have germinated (having a radicle) is counted.

Another data set deals with strawberry leaves. Kind of data set: Spreading of an aqueous solution on a leaf. It counts as in vivo. The note with it: 0.75% solution sprayed on strawberry leaves.
Data set [3] can be described thus: pH modification of the mixture. Particulars: increasing concentration of the 2.5% sucrose stearate solution added to a solution at pH 9.4. It counts as physicochemical.
For data set [4], the system named is flat-leaf parsley variety NOVAS. Kind of data set: Root growth, assays in fields. It counts as in vivo, Petroselinum crispum var. neapolitanum. The note with it: seeds immersed 1 h in 2.5% solution; 12 weeks after sowing. As for the experimental part:
In order to test the effect of the invention in conditions of crops in fields, the flat-leaf parsley variety NOVAS (Petroselinum crispum var. neapolitanum) is used.
as §1
The seeds are mechanically sown (seeder) on strips of four rows each one beside the other to limit as much as possible the variations in soil quality, insulation and temperature. 12 weeks after sowing, 25 parsley plants were taken in order to measure several parameters of the roots: their weight, their length, and their diameter.

A short description of data set [5]: Drift limitation: size of drops after spraying. It counts as physicochemical. Particulars: 2.5% with 5% titanium dioxide; 2, 4 and 8 bars. From the text: Increasing pressures (2, 4 and 8 bars) were used in order to test different conditions (FIG. 21: a, b and c respectively). The greater the pressure the more numerous and fine were the drops.
Data set [6] relates to detached leaves of Buddleja davidii. Kind of data set: Stickiness of a solution on the leaf (washing off). Particulars: 2.5% with 3% titanium dioxide; washed with 14 g water. From the text: A solution is applied by spraying on detached leaves of Buddleja davidii disposed flat on a support.
The leaves were next left at ambient temperature until the sprayed solutions had completely evaporated.
14 grams of water are next sprayed onto the leaves held vertical to simulate rain. The titanium residues on the leaf are next observed.

Procedure for strawberry leaves: Strawberry plants in pots are grown in a climate-controlled chamber in the following conditions: 23° C. and a photoperiod of 16 h/8 h.

As for sucrose stearate, in data set [1], the “reduction of the volume of foam immediately after stirring” value was 30%. The root morphology entry in data set [2] was “root elongation, coupled with vertical anchorage of the roots”. In addition, the “increase of the germination kinetics on average” value in the data set with maize seeds was 30%. Moreover, the “germinated seeds, treated batch compared with the control batch” value in the data set on maize seeds (after 2 days) came out at 10 times. Further, in the data set on strawberry leaves, the “distribution of the solution on the leaf (spreading of the drops)” value is “distributed evenly over the leaf” and the “passage of the solution onto the lower face compared with the control batch” value was “much greater passage of the solution onto the lower face”. In addition, the “pH at which the mixture stabilizes” value in data set [3] stood at 5.25. Further, in data set [4], the “diameter of the taproot, on average greater than the control” value came out at 30%; the “roots with a length of more than 10 cm” value is listed as 74%; the “weight of the taproot, on average greater than the control” value is given as 70%. Moreover, the “size of the drops after spraying” value in data set [5] is given as “enables an increase the size of the drops”. Also, the “titanium dioxide residue on the leaf after washing” value in data set [6] is “still clearly visible”.

The record behind these values is patent US20200236933A1, “USE OF A NON-IONIC SURFACTANT WHICH IS A POLYOL DERIVATIVE AS A PLANT GROWTH STIMULATING AGENT OR AS AN ADJUVANT” (priority 2017, published 2020).
